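Protocol summary: plate cells (96-well), add compound at 5 concentrations, incubate 48 h, interpolate endpoints linearly. GI50 marks 50% less growth. TGI is the concentration that stops growth completely.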
How the values were obtained:
Test in all cases: growth of human tumour cells (NCI), 48 h
U251 CNS = tested on: U251 CNS
DU-145 prostate = tested on: DU-145 prostate
RXF 393 renal = tested on: RXF 393 renal
HCC-2998 colon = tested on: HCC-2998 colon
SK-MEL-28 melanoma = tested on: SK-MEL-28 melanoma
OVCAR-5 ovarian = tested on: OVCAR-5 ovarian
A549 NSCLC = tested on: A549 NSCLC
NCI-H460 lung = tested on: NCI-H460 lung
MCF7 breast = tested on: MCF7 breast
HCT-15 colon = tested on: HCT-15 colon
SK-MEL-5 melanoma = tested on: SK-MEL-5 melanoma
OVCAR-4 ovarian = tested on: OVCAR-4 ovarian
HOP-62 NSCLC = tested on: HOP-62 NSCLC
OVCAR-8 ovarian = tested on: OVCAR-8 ovarian
MDA-MB-435 = tested on: MDA-MB-435
SNB-75 CNS = tested on: SNB-75 CNS
OVCAR-3 ovarian = tested on: OVCAR-3 ovarian
CCRF-CEM leukemia = tested on: CCRF-CEM leukemia
IGROV1 ovarian = tested on: IGROV1 ovarian
UO-31 renal = tested on: UO-31 renal
A498 renal = tested on: A498 renal
NCI/ADR-RES ovarian = tested on: NCI/ADR-RES ovarian
LOX IMVI melanoma = tested on: LOX IMVI melanoma
SF-295 CNS = tested on: SF-295 CNS
SW-620 colon = tested on: SW-620 colon
HL-60(TB) leukemia = tested on: HL-60(TB) leukemia
HS 578T breast = tested on: HS 578T breast
RPMI-8226 leukemia = tested on: RPMI-8226 leukemia
SR leukemia = tested on: SR leukemia
SK-MEL-2 melanoma = tested on: SK-MEL-2 melanoma
T-47D breast = tested on: T-47D breast
SK-OV-3 ovarian = tested on: SK-OV-3 ovarian
SF-268 CNS = tested on: SF-268 CNS
786-0 renal = tested on: 786-0 renal
NCI-H226 lung = tested on: NCI-H226 lung
TK-10 renal = tested on: TK-10 renal
HCT-116 colon = tested on: HCT-116 colon
MALME-3M melanoma = tested on: MALME-3M melanoma
HOP-92 NSCLC = tested on: HOP-92 NSCLC
MDA-MB-231 breast = tested on: MDA-MB-231 breast
CAKI-1 renal = tested on: CAKI-1 renal
ACHN renal = tested on: ACHN renal
KM12 colon = tested on: KM12 colon
SN12C renal = tested on: SN12C renal
COLO 205 colon = tested on: COLO 205 colon
EKVX NSCLC = tested on: EKVX NSCLC
SNB-19 CNS = tested on: SNB-19 CNS
PC-3 prostate = tested on: PC-3 prostate
UACC-62 melanoma = tested on: UACC-62 melanoma
SF-539 CNS = tested on: SF-539 CNS
M14 melanoma = tested on: M14 melanoma
MOLT-4 leukemia = tested on: MOLT-4 leukemia
NCI-H23 lung = tested on: NCI-H23 lung
UACC-257 melanoma = tested on: UACC-257 melanoma
BT-549 breast = tested on: BT-549 breast

SMILES: C[C@]12CCc3nc(Nc4ccc(O)cc4)sc3C1=CC[C@@H]1[C@@H]2CC[C@]2(C)/C(=N/NC(N)=S)CC[C@@H]12
- GI50 (U251 CNS): 1290 nM
- TGI (U251 CNS): 2600 nM
- GI50 (DU-145 prostate): 1640 nM
- TGI (DU-145 prostate): 3.15 µM
- GI50 (RXF 393 renal): 1230 nM
- TGI (RXF 393 renal): 2690 nM
- GI50 (HCC-2998 colon): 1890 nM
- TGI (HCC-2998 colon): 4.3 µM
- GI50 (SK-MEL-28 melanoma): 1510 nM
- TGI (SK-MEL-28 melanoma): 3.4 µM
- GI50 (OVCAR-5 ovarian): 1980 nM
- TGI (OVCAR-5 ovarian): 4.8 µM
- GI50 (A549 NSCLC): 498 nM
- TGI (A549 NSCLC): 1860 nM
- GI50 (NCI-H460 lung): 525 nM
- TGI (NCI-H460 lung): 1940 nM
- GI50 (MCF7 breast): 1150 nM
- TGI (MCF7 breast): 3.01 µM
- GI50 (HCT-15 colon): 1240 nM
- TGI (HCT-15 colon): 3.03 µM
- GI50 (SK-MEL-5 melanoma): 1660 nM
- TGI (SK-MEL-5 melanoma): 3.14 µM
- GI50 (OVCAR-4 ovarian): 1600 nM
- TGI (OVCAR-4 ovarian): 3.43 µM
- GI50 (HOP-62 NSCLC): 1700 nM
- TGI (HOP-62 NSCLC): 4.21 µM
- GI50 (OVCAR-8 ovarian): 1740 nM
- TGI (OVCAR-8 ovarian): 4.55 µM
- GI50 (MDA-MB-435): 664 nM
- TGI (MDA-MB-435): 2050 nM
- GI50 (SNB-75 CNS): 680 nM
- TGI (SNB-75 CNS): 2460 nM
- GI50 (OVCAR-3 ovarian): 1560 nM
- TGI (OVCAR-3 ovarian): 3.12 µM
- GI50 (CCRF-CEM leukemia): 629 nM
- TGI (CCRF-CEM leukemia): > 100 µM
- GI50 (IGROV1 ovarian): 1450 nM
- TGI (IGROV1 ovarian): 3 µM
- GI50 (UO-31 renal): 1300 nM
- TGI (UO-31 renal): 2570 nM
- GI50 (A498 renal): 2090 nM
- TGI (A498 renal): 4.9 µM
- GI50 (NCI/ADR-RES ovarian): 2380 nM
- TGI (NCI/ADR-RES ovarian): 7.51 µM
- GI50 (LOX IMVI melanoma): 1520 nM
- TGI (LOX IMVI melanoma): 2860 nM
- GI50 (SF-295 CNS): 1570 nM
- TGI (SF-295 CNS): 3.48 µM
- GI50 (SW-620 colon): 1290 nM
- TGI (SW-620 colon): 3.26 µM
- GI50 (HL-60(TB) leukemia): 1880 nM
- TGI (HL-60(TB) leukemia): 5.07 µM
- GI50 (HS 578T breast): 1750 nM
- TGI (HS 578T breast): 6.36 µM
- GI50 (RPMI-8226 leukemia): 1490 nM
- TGI (RPMI-8226 leukemia): 5.8 µM
- GI50 (SR leukemia): 454 nM
- TGI (SR leukemia): > 100 µM
- GI50 (SK-MEL-2 melanoma): 1690 nM
- TGI (SK-MEL-2 melanoma): 3.52 µM
- GI50 (T-47D breast): 1510 nM
- TGI (T-47D breast): 3.57 µM
- GI50 (SK-OV-3 ovarian): 1620 nM
- TGI (SK-OV-3 ovarian): 3.25 µM
- GI50 (SF-268 CNS): 1340 nM
- TGI (SF-268 CNS): 3.98 µM
- GI50 (786-0 renal): 1640 nM
- TGI (786-0 renal): 3.09 µM
- GI50 (NCI-H226 lung): 1710 nM
- TGI (NCI-H226 lung): 4.05 µM
- GI50 (TK-10 renal): 2130 nM
- TGI (TK-10 renal): 4.35 µM
- GI50 (HCT-116 colon): 1150 nM
- TGI (HCT-116 colon): 2570 nM
- GI50 (MALME-3M melanoma): 1120 nM
- TGI (MALME-3M melanoma): 2380 nM
- GI50 (HOP-92 NSCLC): 1710 nM
- TGI (HOP-92 NSCLC): 4.2 µM
- GI50 (MDA-MB-231 breast): 1880 nM
- TGI (MDA-MB-231 breast): 4.79 µM
- GI50 (CAKI-1 renal): 1590 nM
- TGI (CAKI-1 renal): 3.4 µM
- GI50 (ACHN renal): 1590 nM
- TGI (ACHN renal): 2990 nM
- GI50 (KM12 colon): 1260 nM
- TGI (KM12 colon): 2740 nM
- GI50 (SN12C renal): 1530 nM
- TGI (SN12C renal): 3.37 µM
- GI50 (COLO 205 colon): 1560 nM
- TGI (COLO 205 colon): 3.39 µM
- GI50 (EKVX NSCLC): 1570 nM
- TGI (EKVX NSCLC): 3.61 µM
- GI50 (SNB-19 CNS): 1380 nM
- TGI (SNB-19 CNS): 2940 nM
- GI50 (PC-3 prostate): 1580 nM
- TGI (PC-3 prostate): 5.28 µM
- GI50 (UACC-62 melanoma): 1430 nM
- TGI (UACC-62 melanoma): 2890 nM
- GI50 (SF-539 CNS): 1490 nM
- TGI (SF-539 CNS): 3.09 µM
- GI50 (M14 melanoma): 1180 nM
- TGI (M14 melanoma): 2900 nM
- GI50 (MOLT-4 leukemia): 470 nM
- TGI (MOLT-4 leukemia): 3.39 µM
- GI50 (NCI-H23 lung): 1800 nM
- TGI (NCI-H23 lung): 4.36 µM
- GI50 (UACC-257 melanoma): 2040 nM
- TGI (UACC-257 melanoma): 5.61 µM
- GI50 (BT-549 breast): 1470 nM
- TGI (BT-549 breast): 3.99 µM
